# Reference: US20090149375A1, “USE OF THE MST PROTEIN FOR THE TREATMENT OF A THROMBOEMBOLIC DISORDER” (SANOFI-AVENTIS, priority 2005, published 2009)
# Target: T1, GST-Mst1 (Homo sapiens, UniProt Q13043)
# T1 sequence (Q13043 1-487): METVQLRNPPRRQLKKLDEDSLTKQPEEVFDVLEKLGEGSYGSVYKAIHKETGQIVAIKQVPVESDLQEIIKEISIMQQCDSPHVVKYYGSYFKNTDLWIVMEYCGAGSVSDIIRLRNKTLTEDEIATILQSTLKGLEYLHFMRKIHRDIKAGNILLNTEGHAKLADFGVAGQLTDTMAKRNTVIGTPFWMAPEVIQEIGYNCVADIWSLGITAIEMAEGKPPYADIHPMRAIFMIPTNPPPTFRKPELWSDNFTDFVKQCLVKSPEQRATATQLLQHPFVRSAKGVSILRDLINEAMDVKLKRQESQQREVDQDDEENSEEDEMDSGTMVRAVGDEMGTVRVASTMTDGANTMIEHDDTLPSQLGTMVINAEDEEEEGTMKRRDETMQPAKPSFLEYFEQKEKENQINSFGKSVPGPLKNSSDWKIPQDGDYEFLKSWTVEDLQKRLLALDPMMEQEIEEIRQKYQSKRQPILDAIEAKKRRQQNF
# Experiment: GST-Mst1 in vitro kinase assay (ATP consumption assay)
# Details: result in words
smiles,measurement,setting,value
CN[C@@H]1C[C@H]2O[C@@](C)([C@@H]1OC)n1c3ccccc3c3c4c(c5c6ccccc6n2c5c31)C(=O)NC4 [staurosporine],inhibition of MST1 kinase activity (ATP consumption),,completely inhibit
same,inhibition of MST1 kinase activity (ATP consumption),listed as Staurosporine,inhibit completely
